The source of these data is PubChem BioAssay (NCI).

What all share (assay): growth of human tumour cells (NCI), 48 h
The test system of assay [1] is MCF7 breast.
Assay [2] deals with DU-145 prostate.
Assay [3] concerns HCT-15 colon.
The test system of assay [4] is NCI/ADR-RES ovarian.
Assay [5] deals with PC-3 prostate.
In assay [6] the test system is RXF 393 renal.
Assay [7] relates to M14 melanoma.
Assay [8] has as its system UACC-62 melanoma.
Assay [9] deals with A498 renal.
Assay [10] deals with CAKI-1 renal.
Assay [11] relates to KM20L2 colon.
Assay [12] has as its system DMS 114 small cell lung.

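Test compounds were applied to cells in 96-well plates for 48 hours at 5 doses. At the GI50, growth is halved. TGI is the concentration that stops growth completely.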

Regarding `CC1=CC(C)C/C=C/C2C3OC3(C)C(C)C3C(Cc4c[nH]c5ccccc45)NC(=O)C23C(=O)C=CC(=O)C1O` (stereo unspecified), the TGI in assay [1] came to 27.1 µM; in [2], 27.6 µM; in assay [3] it was 8.67 µM; in assay [4], 68.2 µM; in assay [5] it was 30.1 µM; in assay [6], 2.94 µM. Also, the TGI in assay [7] came to 16.8 µM; in [8], 29.1 µM; in assay [9] it was 0.935 µM; in assay [10], 2.94 µM.
On to `CN(C)CCCNC(=O)c1cc2[nH]c3c(cnc4ccc([N+](=O)[O-])cc43)c(=O)c2n1C`, for which the GI50 in [1] was 15.5 µM; in [2] it was 12.6 µM; in [3], 15.2 µM; in assay [4] it was 22 µM; in assay [6], 4.88 µM; in [7], 17.3 µM. In addition, in assay [9], the GI50 was 55.1 µM. For the same compound, the TGI turned out to be 28.9 µM in [1]; 25.1 µM in [2]; 31.8 µM in assay [3]; 49.6 µM in assay [4]; 18.7 µM in [6]; 31.1 µM in assay [7]. For the same compound, the TGI in assay [9] was over 100 µM.
With `CC(=O)N(C)c1ccc(Nc2cc(C)[nH]c3ccc4ncnc4c23)cc1`, the TGI in assay [1] came to 26 µM; in assay [2], 22.4 µM; in assay [3], 93.3 µM; in assay [4], 453 µM; in [5], 18 µM; in [6], 22.9 µM. In addition, the TGI came out at 21.5 µM in assay [7]; 37.2 µM in assay [11]; 20.4 µM in [12]; 31.8 µM in assay [8]; 25.2 µM in assay [9]; 23.8 µM in assay [10].
Consider `O=c1cnn(C/C=C/CBr)c(=O)[nH]1`, for which the TGI in assay [1] is 36 µM; in assay [2] it was 43.8 µM; in assay [3], 39.2 µM; in assay [4] it was 58.1 µM; in assay [5] it was 36.4 µM; in [6], 31.9 µM. Moreover, the TGI is 35.9 µM in assay [7], 31.7 µM in assay [9] and 25.6 µM in [10].
For `COc1ccc(C2COc3cc(OC(C)=O)c(OC(C)=O)cc3C2)cc1` (stereo unspecified), the TGI in [1] was 62.7 µM; in [3], 52.9 µM; in [4] it was 101 µM; in assay [6], 34.1 µM; in assay [11], 65.8 µM; in assay [12], 20.6 µM. The TGI amounted to 43.5 µM in assay [8], 8.32 µM in assay [9] and 51.1 µM in [10].
For the compound `O=C(O)c1ccc(Nc2c3ccccc3nc3ccccc23)cc1`, the TGI in assay [1], in assay [3], in assay [4], in assay [6], in assay [11] and in assay [12] was over 100 µM in each case. Also, the TGI in assay [8], in [9] and in assay [10] was over 100 µM in each case.
As to `c1nc(OCC2CCCCC2)c2[nH]cnc2n1`, the TGI in assay [2], in assay [3], in assay [4], in [5], in assay [6] and in assay [7] was over 100 µM each time. The TGI in assay [8] and in assay [10] was over 100 µM each time.
In the case of `CC(C)(C)[Si](OC1CC(n2cnc3c(N)ncnc32)OC1CO)(c1ccccc1)c1ccccc1` (stereo unspecified), the TGI in assay [6] was 29.5 µM; in [7], over 100 µM; in assay [11] it was 29.5 µM; in assay [12], 54.2 µM; in assay [9], 32.9 µM.
As to `O=C(O)CC(CC(=O)O)C(=O)O`, the TGI in [1], in assay [2], in assay [3], in assay [4], in assay [5] and in [6] was over 100 µM in each case. Besides, the TGI in assay [7], in assay [8], in assay [9] and in [10] was over 100 µM in each case.
Take `Cc1cc(C)n(C(=C(C(Cl)=C(Cl)Cl)[N+](=O)[O-])n2nc(C)cc2C)n1`: the TGI in assay [1] worked out at 8.2 µM; in assay [2], 14.9 µM; in [3], 11.4 µM; in assay [4], 20.5 µM; in assay [5] it was 13.6 µM; in assay [6], 16 µM. Besides, the TGI in assay [7] stood at 15.5 µM; in assay [8], 14.9 µM; in [9], 8.59 µM; in assay [10], 8.38 µM.
In the case of `O=C1C(Cl)N(c2ccc(Cl)cc2)C1c1c[nH]c2ccccc12` (stereo unspecified), the TGI was found to be 42.1 µM in assay [6]; 42.3 µM in assay [7]; 38.3 µM in [11]; 45.2 µM in assay [12]; 68.8 µM in assay [8].
In the case of `COc1ccc(N2C(=O)/C(=C(\C)c3cc4ccccc4oc3=O)N=C2c2cc([N+](=O)[O-])ccc2Cl)cc1`, the TGI in assay [7] was 86.3 µM; in assay [11] it was over 100 µM; in assay [12], over 100 µM; in assay [8] it was over 100 µM; in assay [9] it was 82.6 µM; in assay [10], over 100 µM.
For the compound `C/C(=N\NC(=S)N1CCCCC1)c1nc2ncccc2[nH]1`, the TGI is 14 µM in assay [1]; 86.3 µM in [2]; over 100 µM in assay [3]; over 100 µM in assay [4]; over 100 µM in assay [5]; 47.7 µM in assay [7]. Further, the TGI in assay [8] was 69.7 µM; in [9], 65.5 µM; in [10], over 100 µM.
